This note sets out measurements from ChEMBL document CHEMBL1201862, “PubChem BioAssay data set” (2004).

As usually defined, the AC50 is the concentration giving half of the maximal activity seen.

Active and inactive are the calls of the source.

Series [1] in a line: inhibitors of firefly luciferase expression or activity, dose response, H4 neuroglioma cells, luminescence (AID 1990). The format is functional, cell-based.
The nature of series [2]: Luminescence Cell-Based Dose Response HTS to Identify Inhibitors of 5'UTR Stem-Loop Driven Prion Protein mRNA Translation in H4 Neuroglioblastoma Cells. [Related pubchem assays: 1827 (Project Summary), 1813 (Primary HTS)]. The format is functional.
Series [3] can be described thus: inhibitors of SNCA 5'UTR-driven reporter translation, confirmation, H4 neuroglioma cells, luminescence (AID 1988). The format is functional, cell-based.
Series [4] can be described thus: inhibitors of intracellular T. cruzi replication, confirmation, NIH3T3 host cells, beta-gal luminescence (AID 2044).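 Also: intracellular parasites grown in NIH/3T3 mouse fibroblasts as host cells; luminescent beta-galactosidase reporter signal from transgenic T. cruzi replicating inside host cells; inhibitors lower the luminescence signal.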 The format is functional, cell-based.
Series [5] in a line: cytotoxicity toward NIH3T3 fibroblasts, dose response, counter-screen, cell-based, ATP luminescence, mouse fibroblasts (AID 2010).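 Also: cells exposed to compound for about 90 hours before reading.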 It is filed as functional.
The target of a further series is Cytochrome P450 2C19 (Homo sapiens, UniProt P33261). Put plainly: Cytochrome panel assay with activity outcomes. Panel member name: p450-cyp2c19 Compounds with AC50 equal or less than 10 uM are considered active. It is filed as functional.
Chain of Cytochrome P450 2C19 (P33261 whole entry): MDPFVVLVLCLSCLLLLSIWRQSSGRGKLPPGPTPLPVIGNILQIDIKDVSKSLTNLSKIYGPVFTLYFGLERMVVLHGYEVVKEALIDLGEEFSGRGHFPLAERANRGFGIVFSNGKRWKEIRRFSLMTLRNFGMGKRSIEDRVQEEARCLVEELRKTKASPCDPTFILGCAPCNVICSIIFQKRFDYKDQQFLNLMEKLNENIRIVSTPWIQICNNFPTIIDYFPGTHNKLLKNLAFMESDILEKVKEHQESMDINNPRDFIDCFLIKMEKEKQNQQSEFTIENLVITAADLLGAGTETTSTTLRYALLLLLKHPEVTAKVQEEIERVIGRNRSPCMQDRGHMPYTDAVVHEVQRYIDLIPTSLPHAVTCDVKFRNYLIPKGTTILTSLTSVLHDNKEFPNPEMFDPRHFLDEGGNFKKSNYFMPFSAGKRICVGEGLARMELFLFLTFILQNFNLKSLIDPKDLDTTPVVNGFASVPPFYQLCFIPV
For series [6], the target named is T1, Corticotropin-releasing factor receptor 2/Corticotropin-releasing factor-binding protein (Homo sapiens, UniProt P24387+Q13324).
T1 sequence (Q13324 whole entry): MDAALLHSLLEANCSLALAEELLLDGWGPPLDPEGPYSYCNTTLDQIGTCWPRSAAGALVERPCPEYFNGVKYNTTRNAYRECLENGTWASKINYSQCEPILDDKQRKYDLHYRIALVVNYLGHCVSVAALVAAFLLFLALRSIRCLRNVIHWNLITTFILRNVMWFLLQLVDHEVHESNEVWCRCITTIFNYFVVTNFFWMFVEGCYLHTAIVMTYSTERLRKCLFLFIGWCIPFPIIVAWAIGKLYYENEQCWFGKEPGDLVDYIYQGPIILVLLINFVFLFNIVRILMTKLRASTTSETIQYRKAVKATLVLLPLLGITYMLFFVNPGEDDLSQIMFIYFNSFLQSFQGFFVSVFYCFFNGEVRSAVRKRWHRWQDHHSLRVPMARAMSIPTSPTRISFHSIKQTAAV
T1 sequence (P24387 whole entry): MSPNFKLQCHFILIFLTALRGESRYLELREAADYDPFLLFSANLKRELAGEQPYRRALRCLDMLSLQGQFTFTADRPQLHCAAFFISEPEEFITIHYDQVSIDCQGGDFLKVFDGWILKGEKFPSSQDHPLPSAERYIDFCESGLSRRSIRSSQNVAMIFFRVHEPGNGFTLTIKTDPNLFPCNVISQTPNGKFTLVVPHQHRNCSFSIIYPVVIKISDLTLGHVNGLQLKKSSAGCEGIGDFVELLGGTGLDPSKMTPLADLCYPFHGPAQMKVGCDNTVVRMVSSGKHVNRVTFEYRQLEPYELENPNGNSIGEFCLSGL
In words: activators of CRF receptor 2 with binding protein – uHTS hits, confirmation (AID 602473). As to conditions: read-out: EC50_Mean. It is filed as functional.

As to `Cn1c(=N)n(CC(=O)c2ccc(Cl)c(Cl)c2)c2ccccc21`, the EC50 in series [1] was 6.07 µM (inconclusive); in series [2], 13.5 µM (active); in series [3] it was 9.54 µM (active).

Take `CCc1c(C#N)c(SCCC(=O)Nc2ccc(F)cc2)nc2c1C(=O)CC(C)(C)C2`: the EC50 in series [4] is 0.996 µM (active); in series [5], > 60 µM (not active).

Take `Cc1cccc(NC(=O)CSc2nnc(C)c(=O)n2N)c1C`: the EC50 in series [1], in series [2] and in series [3] was > 120 µM (not active) throughout.

Regarding `CC(C)NC(=O)c1ccccc1NC(=O)/C=C/c1cccc([N+](=O)[O-])c1`, the EC50 was 8.64 µM (active) in series [1], 11.3 µM (active) in series [2] and 9.29 µM (active) in series [3].

Consider `O=S(=O)(c1ccccc1)N1CCC2(CC1)OCCO2`, for which the EC50 is > 120 µM (not active) in series [1], 6.97 µM (active) in series [2] and > 120 µM (not active) in series [3].

For the compound `CC(C)NC(=O)N1CCC2(CC1)CCN(S(C)(=O)=O)CC2`, at Cytochrome P450 2C19 (read-out: AC50), the AC50 was 39.8 µM (inconclusive).

`COC(=O)c1sc(NC(=S)NC(=O)c2cccc(C)c2)nc1C`: in series [6], the EC50 was 9.05 µM (active).

Consider `NC(=NOC(=O)c1cc([N+](=O)[O-])ccc1Cl)c1cccnc1`, for which the EC50 in series [1], in series [2] and in series [3] was > 120 µM (not active) in each case.

`Cc1ccc(Sc2nc(-c3ccccc3)ccc2C#N)cc1`: at Cytochrome P450 2C19 (read-out: AC50), the AC50 was 0.631 µM (inconclusive).

With `Cc1onc(-c2ccccc2Cl)c1C(=O)N(Cc1ccc(N(C)C)cc1)C(C)C`, the EC50 was 22.5 µM (active) in series [1], > 120 µM (not active) in series [2] and > 120 µM (not active) in series [3].

Consider `CC(C)c1ccc(C(O)P(=O)(OC2CCCCC2)OC2CCCCC2)cc1` (stereo not given), for which the EC50 in series [1] is > 120 µM (not active); in series [2] it was 19.2 µM (active); in series [3], > 120 µM (not active).

In the case of `Cc1ccc2sc(N3CCN(C(=O)c4ccc([N+](=O)[O-])o4)CC3)nc2c1C`, the EC50 in series [4] was 0.119 µM (active); in series [5], > 30 µM (not active).

As to `CC1(C)Cc2c(ccc3ccccc23)C(c2cc3ccccc3oc2=O)=N1`, the EC50 in series [1] is 11.1 µM (active); in series [2] it was 21.5 µM (active); in series [3] it was > 120 µM (not active).

As for `Cc1ccc2c(c1)N1C(=O)c3ccccc3C1C1=C(O)CC(C)(C)CC1=N2` (stereo not given), the EC50 was > 120 µM (not active) in series [1], 18.1 µM (active) in series [2] and > 120 µM (not active) in series [3].

With `COc1cc(NC(=O)CCN2CCN(C/C=C/c3ccccc3)CC2)cc(OC)c1`, the EC50 in series [4] was 0.918 µM (active); in series [5], > 60 µM (not active).

As for `COc1ccc(-n2c(S)nnc2CNC(=O)c2cc(OC)c(OC)c(OC)c2)cc1`, on Cytochrome P450 2C19, the AC50 entry is “inconclusive”.

Turning to `Cc1ccc(-n2nnc(-c3nccs3)n2)cc1`, the EC50 in series [1] was 4.02 µM (active); in series [2], 0.985 µM (active); in series [3], 1.41 µM (active).

For `O=C(Nc1ccc(N2CCCCC2)cc1)c1cc([N+](=O)[O-])cc([N+](=O)[O-])c1`, the EC50 in series [4] was 0.411 µM (active); in series [5], > 60 µM (not active).

In the case of `CC(=O)NCCC(=O)Nc1cc(S(=O)(=O)N2CCCCC2)ccc1N1CCN(C)CC1`, the values for the EC50 in series [4] and in series [5] were 0.231 µM (active) and > 30 µM (not active), respectively.

On to `O=C(CCCCCn1c(=S)[nH]c2ccc(N3CCOCC3)cc2c1=O)NC1CCN(Cc2ccccc2)CC1`, for which the figures for the EC50 in series [4] and in series [5] were 0.595 µM (active) and > 60 µM (not active), respectively.

With `Cc1nn(Cc2ccccc2Cl)c(C)c1C(=O)NC1CCCc2ccccc21` (stereo not given), the EC50 in series [1] is 17.1 µM (active); in series [2], 103 µM (active); in series [3] it was 58 µM (active).

In the case of `O=C(OCc1ccccc1)c1cn(-c2ccccc2)nc1-c1ccncc1`, the EC50 in series [4] was 1.14 µM (active); in series [5], 33.5 µM (active).

In the case of `NC(S)=Nc1cccc2[nH]ccc12`, in series [5], the EC50 is > 30 µM (not active).

With `Cc1ccc(C)c(NC(=O)c2ccccc2O)c1`, the EC50 in series [6] is > 53 µM (inactive).

Regarding `CN1c2ccccc2Oc2c(c(=O)n(C)c(=O)n2C)C1c1cccc([N+](=O)[O-])c1` (stereo not given), on Cytochrome P450 2C19 (read-out: AC50), the AC50 is 14.1 µM (inconclusive).

Regarding `Nc1nc(NCCCN2CCOCC2)nc(Nc2ccccc2)c1[N+](=O)[O-]`, the EC50 is 40.7 µM (active) in series [1], 19 µM (active) in series [2] and > 120 µM (not active) in series [3].

Turning to `Cc1cc(C)c(S(=O)(=O)N2CCN(c3ccc([N+](=O)[O-])c(-n4nc(C)cc4C)c3)CC2)c(C)c1`, the EC50 was 1.83 µM (active) in series [4] and > 60 µM (not active) in series [5].

With `O=c1c(-c2ccc(O)cc2)coc2cc(O)cc(O)c12` [GENISTEIN], the AC50 on Cytochrome P450 2C19 (read-out: AC50) is 10 µM (inconclusive).

With `CCC(NCCC1=CCCCC1)=C1C(=O)NC(=O)NC1=O`, the EC50 in series [1], in series [2] and in series [3] was > 120 µM (not active) in each case.

`COc1ccc(N(CC(=O)NN=C2CCCC2)S(=O)(=O)c2ccccc2)cc1Cl`: the EC50 in series [6] is 4.37 µM (active).

For `CN1CCN(CC2(O)CCN(S(=O)(=O)c3ccc(Cl)cc3)CC2)CC1`, the EC50 was 1.11 µM (active) in series [4] and > 60 µM (not active) in series [5].

Take `Cc1c(C(=O)NCC2COc3ccccc3O2)oc2ccc(S(=O)(=O)N3CC(C)CC(C)C3)cc12` (stereo not given): the results for the EC50 in series [4] and in series [5] were 1.79 µM (active) and > 60 µM (not active), respectively.

In the case of `O=C(CCc1ccc(S(=O)(=O)NCc2ccccc2)cc1)N1CCN(Cc2ccc3c(c2)OCO3)CC1`, the EC50 in series [4] is 0.897 µM (active); in series [5], > 30 µM (not active).

On to `CCC/C=C(\CCC)C(NC(=O)C(C)(C)C)c1ccc(C(=O)OC)cc1` (stereo not given), for which, at Cytochrome P450 2C19 (read-out: AC50), the AC50 is 39.8 µM (inconclusive).

Consider `Cc1ccccc1N1C(=O)NC(=O)/C(=C\c2ccc3c(c2)CCCN3Cc2ccccc2)C1=O`, for which the EC50 in series [6] was 14.2 µM (active).

Turning to `COc1cccc(-c2nc(CS(=O)(=O)CC(=O)NCCc3ccc(C)cc3)c(C)o2)c1`, the EC50 in series [1], in series [2] and in series [3] was > 120 µM (not active) each time.

In the case of `CCc1ccc(-c2nc(CSCC(=O)N3CCN(c4ccccn4)CC3)c(C)o2)cc1`, the EC50 was 8.61 µM (active) in series [1], 15 µM (active) in series [2] and 12 µM (active) in series [3].

Turning to `O=C(O)c1ccccc1N/N=C\c1ccnc2ccccc12`, the EC50 in series [2] was 11.1 µM (active); in series [3], 7.78 µM (active).

For `COc1cc(CNC(=O)c2nc(Cn3nc(C)c(Br)c3C)no2)cc(OC)c1`, the EC50 is > 120 µM (not active) in series [1], > 120 µM (not active) in series [2] and 42.7 µM (active) in series [3].

On to `CCN(Cc1ccc(O)cc1)CC1CCCN(CCc2cccc(F)c2)C1` (stereo not given), for which the EC50 in series [4] was 0.69 µM (active); in series [5] it was 40.3 µM (active).

In the case of `CCOc1ccc(NS(=O)(=O)c2ccc(C(=O)NCC3(N4CCCCC4)CCCCC3)cc2)cc1`, in series [6], the EC50 was 6.45 µM (active).

`C#CCn1/c(=N/C(=O)c2ccc(S(=O)(=O)N3CCCc4ccccc43)cc2)sc2cc(S(N)(=O)=O)ccc21`: the EC50 is 0.819 µM (active) in series [4] and > 60 µM (not active) in series [5].

Regarding `CCN(CC)CCN(C(=O)c1ccc(S(=O)(=O)N2CCCCC2)cc1)c1nc2cc3c(cc2s1)OCO3`, the figures for the EC50 in series [4] and in series [5] were 0.213 µM (active) and > 60 µM (not active), respectively.
